Data reported in patent EP0354453A2, “Antimicrobial agent for animals” (priority 1988, dated 1990).
Converted amounts (≈) assume the structure as drawn. Where a name gives a salt, the structure may show the parent alone. Read-outs that look alike come from different tables or passages of the source.

Assays:
[1] = tested on: Bordetella bronchiaseptica OKM-1; test: in vitro antimicrobial activity (MIC), agar dilution, Part 2; type: cell-based
Description: (§1) Test microorganisms listed in Table 2 were cultured overnight in heart infusion nutrient broth (produced by Eiken Chemical Co., Ltd.). Culture broth containing about 10⁸/ml cells was diluted to a volume of 100 times. An aliquot (about 0.05 ml) of the diluted broth was inoculated onto a Mueller Hinton agar plate (produced by Eiken Chemical Co., Ltd.) to which Compound No. 1 was added in a prescribed concentration. […]
(§2) MIC of Compounds (1)-(8) against various pathogenic bacteria derived from animals was determined in the same manner as in Example 1.

Escherichia coli 139 = test: as above; type: cell-based
Description: as §1, §2

Escherichia coli S6W = test: as above; type: cell-based
Description: as §1, §2

[2] = tested on: Pasteurella multocida DB-12-1; test: as above; type: cell-based; conditions: DB121
Description: as §1, §2

[3] = tested on: Staphylococcus aureus Yamaguchi 6; test: as above; type: cell-based
Description: as §1, §2

Escherichia coli 881 = test: as above; type: cell-based
Description: as §1, §2

[4] = tested on: Salmonella typhimurium 569; test: as above; type: cell-based
Description: as §1, §2

[5] = tested on: Salmonella typhimurium 103; test: as above; type: cell-based; conditions: Salmonella enterica
Description: as §1, §2

[6] = tested on: Mycoplasma gallisepticum Strain T-2; test: in vitro antimicrobial activity (MIC) in Frey liquid medium; type: cell-based; conditions: Mycoplasmoides gallisepticum
Description: (§3) Various test strains of Mycoplasma gallisepticum derived from chicken were cultured in a Frey liquid medium for Mycoplasma for 3 days. The culture broth containing about 10⁸/ml cells was diluted to a volume of 100 times. The diluted broth was inoculated into Frey liquid media for Mycoplasma to which the compounds of this invention were added at prescribed concentrations. The cells were incubated at 37°C for 3-5 days while daily observing the color of the media. Among the culture broths maintaining yellow color at the time when the control to which no test compound was added turned red, the concentration of the broth having the minimum concentration was taken as the MIC of the compound.

[7] = tested on: Mycoplasma gallisepticum Strain 2012; test: as above; type: cell-based; conditions: Mycoplasmoides gallisepticum, STRAIN2012
Description: as §3

[8] = tested on: Mycoplasma gallisepticum Strain T-7; test: as above; type: cell-based; conditions: Mycoplasmoides gallisepticum, Mycoplasma gallisepticum Strain T-7, from chicken, 37°C, 3-5 days
Description: as §3

[9] = tested on: Mycoplasma gallisepticum Strain DP-1047; test: as above; type: cell-based; conditions: Mycoplasmoides gallisepticum
Description: as §3

[10] = tested on: Mycoplasma gallisepticum Strain 2004; test: as above; type: cell-based; conditions: Mycoplasmoides gallisepticum, STRAIN2004
Description: as §3

[11] = Acute toxicity test, intravenous injection; type: in vivo
Description: Representative test compounds, Compounds (2) and (3), were intravenously injected to mice. No fatality occurred at a dose of 200 mg/kg (10 mice/group), for Compound (2), and a dose of 200 mg/kg (6 mice/group), for Compound (3). From the results, the LD₅₀ values of the compounds are considered to be greater than 200 mg/kg.

Mycoplasma gallisepticum = test: Effect of oral administration on chicken inoculated with Mycoplasma gallisepticum; type: in vivo; conditions: for Chickens developing disease in air sac (naked eye observation) / No. of dead chickens: 5 tested chickens
Description: Mycoplasma gallisepticum cells collected from chickens having respiratory Mycoplasma infection were cultured for 3 days in a Frey liquid media for Mycoplasma. 0.2 ml of this culture broth was injected into the trachea of chickens of an average body weight of 80 g using a 1 ml disposable injection needle. Beginning from the next day following the inoculation, feeds to which Compound (1) had been added in the amount of 100 ppm, 75 ppm, or 50 ppm were freely given to the chickens for 5 days. Following the administration of Compound (1) the chickens were given feed containing no drug for a further 5 days. The surviving chickens were sacrificed and dissected. After examination of the degree of disease in the air sac, Mycoplasma gallisepticum in the infraorbital sinus, trachea, lung, and air sac were determined. […] TABLE 6 […]

[12] = Bordetella, OKM1, Bordetella bronchiaseptica OKM-1, Pig, read-out: MIC
[13] = Escherichia coli 139, Cow, read-out: MIC
[14] = Escherichia coli, S6W, Escherichia coli S6W, Chicken, read-out: MIC
[15] = Pasteurella multocida DB-12-1, Pig, read-out: MIC
[16] = Staphylococcus aureus Yamaguchi 6, Chicken, read-out: MIC
[17] = Escherichia coli, 881, Escherichia coli 881, Pig, read-out: MIC
[18] = Salmonella enterica, TYPHIMURIUM, Salmonella typhimurium 569, Pig, read-out: MIC
[19] = Salmonella typhimurium 103, Chicken, read-out: MIC
[20] = Mycoplasma gallisepticum Strain T-2, from chicken, Frey liquid medium, 37°C, 3-5 days, read-out: MIC
[21] = Mycoplasma gallisepticum Strain 2012, from chicken, Frey liquid medium, 37°C, 3-5 days, read-out: MIC
[22] = Mycoplasma gallisepticum Strain DP-1047, from chicken, Frey liquid medium, 37°C, 3-5 days, read-out: MIC
[23] = Mycoplasma gallisepticum Strain 2004, from chicken, Frey liquid medium, 37°C, 3-5 days, read-out: MIC

Compound | MIC [1, 12] [µg/mL] | MIC (Escherichia coli 139; [13]) [µg/mL] | MIC (Escherichia coli S6W; [14]) [µg/mL] | MIC [2, 15] [µg/mL] | MIC [3, 16] [µg/mL] | MIC (Escherichia coli 881; [17]) [µg/mL] | MIC [4, 18] [µg/mL] | MIC [5, 19] [µg/mL] | MIC [6, 20] [µg/mL] | MIC [7, 21] [µg/mL] | MIC [8] [µg/mL] | MIC [9, 22] [µg/mL] | MIC [10, 23] [µg/mL] | further results
CC(C)N1CCN(c2c(F)cc3c(=O)c(C(=O)O)cn4c3c2OCC4C)CC1 (racemic) [(4), 3(RS)-9-fluoro-2,3-dihydro-3-methyl-10-(4-iso-propyl-1-piperazinyl)-7-oxo-7H-pyrido[1,2,3-de] [1,4]benzoxazine-6-carboxylic acid] | 0.78 (≈ 2 µM) | 0.78 (≈ 2 µM) | 0.78 (≈ 2 µM) | 0.2 (≈ 0.514 µM) | 0.78 (≈ 2 µM) | 0.39 (≈ 1 µM) | 0.78 (≈ 2 µM) | 0.78 (≈ 2 µM) | 0.39 (≈ 1 µM) | 0.05 (≈ 0.128 µM) | 0.39 (≈ 1 µM) | 0.2 (≈ 0.514 µM) | 0.05 (≈ 0.128 µM) | 
CCN1CCN(c2c(F)cc3c(=O)c(C(=O)O)cn4c3c2OCC4C)CC1 (racemic) [Compound (2), 3(RS)-9-fluoro-2,3-dihydro-3-methyl-10-(4-ethyl-1-piperazinyl)-7-oxo-7H-pyrido[1,2,3-de] [1,4]benzoxazine-6-carboxylic acid] | 0.2 (≈ 0.533 µM) | 0.2 (≈ 0.533 µM) | 0.1 (≈ 0.266 µM) | 0.05 (≈ 0.133 µM) | 0.39 (≈ 1.04 µM) | 0.1 (≈ 0.266 µM) | 0.1 (≈ 0.266 µM) | 0.2 (≈ 0.533 µM) | 0.1 (≈ 0.266 µM) | 0.025 (≈ 0.0666 µM) | 0.1 (≈ 0.266 µM) | 0.1 (≈ 0.266 µM) | 0.025 (≈ 0.0666 µM) | fatality ([11]; mice, intravenously injected, dose of 200 mg/kg): No fatality; LD50 ([11]; mouse, in vivo, iv): > 200 mg/kg; Mycoplasma gallisepticum collected in Air sac (Mycoplasma gallisepticum; 50 ppm in feed for 5 days): 2.08 Logarithmic number of collected cells per 1 g of tissue; Mycoplasma gallisepticum collected in Infraorbital sinus (Mycoplasma gallisepticum; 50 ppm in feed for 5 days): 0/5; Mycoplasma gallisepticum collected in Lung (Mycoplasma gallisepticum; 50 ppm in feed for 5 days): 2.43 Logarithmic number of collected cells per 1 g of tissue; Mycoplasma gallisepticum collected in Trachea (Mycoplasma gallisepticum; 50 ppm in feed for 5 days): 2.96 Logarithmic number of collected cells per 1 g of tissue; Chickens developing disease in air sac (naked eye observation) (Mycoplasma gallisepticum; 50 ppm in feed for 5 days): 0; No. of dead chickens (Mycoplasma gallisepticum; 50 ppm in feed for 5 days): 0; Mycoplasma gallisepticum collected in Air sac (Mycoplasma gallisepticum; 75 ppm in feed for 5 days): 0 Logarithmic number of collected cells per 1 g of tissue; Mycoplasma gallisepticum collected in Infraorbital sinus (Mycoplasma gallisepticum; 75 ppm in feed for 5 days): 0/5; Mycoplasma gallisepticum collected in Lung (Mycoplasma gallisepticum; 75 ppm in feed for 5 days): 0 Logarithmic number of collected cells per 1 g of tissue; Mycoplasma gallisepticum collected in Trachea (Mycoplasma gallisepticum; 75 ppm in feed for 5 days): 0 Logarithmic number of collected cells per 1 g of tissue; Chickens developing disease in air sac (naked eye observation) (Mycoplasma gallisepticum; 75 ppm in feed for 5 days): 0; No. of dead chickens (Mycoplasma gallisepticum; 75 ppm in feed for 5 days): 0; Mycoplasma gallisepticum collected in Air sac (Mycoplasma gallisepticum; 100 ppm in feed for 5 days): 0 Logarithmic number of collected cells per 1 g of tissue; Mycoplasma gallisepticum collected in Infraorbital sinus (Mycoplasma gallisepticum; 100 ppm in feed for 5 days): 0/5; Mycoplasma gallisepticum collected in Lung (Mycoplasma gallisepticum; 100 ppm in feed for 5 days): 0 Logarithmic number of collected cells per 1 g of tissue; Mycoplasma gallisepticum collected in Trachea (Mycoplasma gallisepticum; 100 ppm in feed for 5 days): 0 Logarithmic number of collected cells per 1 g of tissue; Chickens developing disease in air sac (naked eye observation) (Mycoplasma gallisepticum; 100 ppm in feed for 5 days): 0; No. of dead chickens (Mycoplasma gallisepticum; 100 ppm in feed for 5 days): 0
CCCCN1CCN(c2c(F)cc3c(=O)c(C(=O)O)cn4c3c2OCC4C)CC1 (racemic) [Compound (5), 3(RS)-9-fluoro-2,3-dihydro-3-methyl-10-(4-n-butyl-1-piperazinyl)-7-oxo-7H-pyrido[1,2,3-de] [1,4]benzoxazine-6-carboxylic acid] | 0.78 (≈ 1.93 µM) | 0.78 (≈ 1.93 µM) | 0.78 (≈ 1.93 µM) | 0.1 (≈ 0.248 µM) | 0.78 (≈ 1.93 µM) | 0.78 (≈ 1.93 µM) | 0.78 (≈ 1.93 µM) | 1.56 (≈ 3.87 µM) | 0.1 (≈ 0.248 µM) | 0.025 (≈ 0.062 µM) | 0.1 (≈ 0.248 µM) | 0.1 (≈ 0.248 µM) | 0.025 (≈ 0.062 µM) | 
CCN1CCN(c2c(F)cc3c(=O)c(C(=O)O)cn4c3c2OCC4C)CC1 (racemic) [Compound (8), 3(RS)-9-fluoro-2,3-dihydro-3-methyl-10-(4-ethyl-1-piperazinyl)-7-oxo-7H-pyrido[1,2,3-de] [1,4]benzoxazine-6-carboxylic acid hydrochloride hemihydrate] |  |  |  |  |  |  |  |  |  |  |  |  |  | MIC ([1]; Bordetella bronchiaseptica OKM-1, Pig, listed as No. 8, hydrochloride hemihydrate): 0.39 µg/mL; MIC (Escherichia coli S6W; Escherichia coli S6W, Chicken, listed as No. 8, hydrochloride hemihydrate): 0.2 µg/mL; MIC (Escherichia coli 881; Escherichia coli 881, Pig, listed as No. 8, hydrochloride hemihydrate): 0.2 µg/mL; MIC ([4]; Salmonella typhimurium 569, Pig, listed as No. 8, hydrochloride hemihydrate): 0.2 µg/mL
CCN1CCN(c2c(F)cc3c(=O)c(C(=O)O)cn4c3c2OC[C@@H]4C)CC1 [(6), 3S-9-fluoro-2,3-dihydro-3-methyl-10-(4-ethyl-1-piperazinyl)-7-oxo-7H-pyrido[1,2,3-de] [1,4]benzoxazine-6-carboxylic acid] | 0.2 (≈ 0.533 µM) | 0.1 (≈ 0.266 µM) | 0.1 (≈ 0.266 µM) |  | 0.2 (≈ 0.533 µM) | 0.1 (≈ 0.266 µM) | 0.1 (≈ 0.266 µM) | 0.1 (≈ 0.266 µM) |  |  |  |  |  | 
CCCN1CCN(c2c(F)cc3c(=O)c(C(=O)O)cn4c3c2OC[C@@H]4C)CC1 [Compound (7), 3S-9-fluoro-2,3-dihydro-3-methyl-10-(4-n-propyl-1-piperazinyl)-7-oxo-7H-pyrido[1,2,3-de] [1,4]benzoxazine-6-carboxylic acid] | 0.39 (≈ 1 µM) | 0.2 (≈ 0.514 µM) | 0.2 (≈ 0.514 µM) |  | 0.2 (≈ 0.514 µM) | 0.2 (≈ 0.514 µM) | 0.2 (≈ 0.514 µM) | 0.2 (≈ 0.514 µM) |  |  |  |  |  | 
CCn1cc(C(=O)O)c(=O)c2cc3c(cc21)OCO3 [Oxolinic acid, reference compound] |  |  |  |  |  |  |  |  |  |  |  |  |  | MIC ([1]; Bordetella, OKM1): 1.56 µg/mL (≈ 5.97 µM); MIC (Escherichia coli 139; Escherichia coli, 139): 0.78 µg/mL (≈ 2.99 µM); MIC (Escherichia coli S6W; Escherichia coli, S6W): 0.39 µg/mL (≈ 1.49 µM); MIC ([2]; Pasteurella multocida): 0.2 µg/mL (≈ 0.766 µM); MIC ([3]; Staphylococcus aureus): 3.13 µg/mL (≈ 12 µM); MIC (Escherichia coli 881; Escherichia coli, 881): 0.39 µg/mL (≈ 1.49 µM); MIC ([4]; Salmonella enterica, TYPHIMURIUM): 0.39 µg/mL (≈ 1.49 µM); MIC ([5]; TYPHIMURIUM): 0.78 µg/mL (≈ 2.99 µM); MIC [6]: > 100 µg/mL; MIC [7]: > 100 µg/mL; MIC [9]: > 100 µg/mL; MIC [10]: > 100 µg/mL
